Reference: patent publication US20020155479A1, “Expression cloning method” (Whitehead Institute for Biomedical Research, priority 1999, published 2002)

Tests used:
[1] = system: GLUT4 at the plasma membrane of 3T3-L1 cells; experiment: FACS-based assay of the proportion of GLUT4 reporter at the cell surface, 3T3-L1 cells; set-up: species or system murine
Protocol: (§1) Confluent cells were reseeded on the indicated day of differentiation to six well plates (Coming, Costar #3506) one day before use in experiments, and were starved in DMEM without fetal bovine serum for at least 3 hours before insulin stimulation. Insulin was generally used at 160 nM; occasionally it was used at 80 nM or 200 nM and no difference was noted between these concentrations in either 3T3-L1 or CHO cells. Insulin was added directly to the wells from a 100×stock. After treatment in the presence or absence of insulin for the times indicated in each figure, cells were quickly transferred to […] and washed with cold phosphate buffered saline (PBS) containing 0.9 mM Ca^++ and 0.5 mM Mg^++ (PBS++). All subsequent steps were carried out at 4° C., and staining of externalized myc epitope was done on adherent cells. Cells were incubated with a 1:200 dilution of anti-myc (9E10) ascites or using 25 μg/ml purified 9E10 in PBS++, 2% bovine serum albumin (BSA), 4% donkey serum for 1.5 hours. Cells were then washed twice in PBS++, for 5 minutes each time. They were then incubated 45 minutes in 12.5 to 25 μg/ml R-phycoerythrin conjugated donkey F(ab′)2 anti-mouse IgG secondary antibody, diluted in PBS++, 2% BSA, 4% donkey serum. Cells were rinsed twice in PBS++, then washed three times in PBS++ for 10 minutes each time, and were resuspended by gentle scraping in PBS++, 2% BSA or PBS++, 5% fetal bovine serum for flow cytometry. For experiments involving insulin removal, cells were chilled as above after insulin stimulation, then washed twice with 5 mM sodium acetate, 150 mM NaCl, pH 4.0 (Kao, A. W., et al., 1998, J Biol Chem 273:25450-7; Yang., J., et al., 1992, J Biol Chem 267:10393-9). Cells were rewarmed in 37° C. DMEM for the times indicated, restimulated or not with insulin, and then returned to 4° C. and chilled with cold PBS++ before staining as above.
(§2) Flow cytometry was done on FACScan or FACSCalibur cytometers (Becton-Dickinson). Appropriate compensation between the FL1 and FL2 channels was set using uninfected (GFP-negative) cells or cells stained with PE only (e.g. using a PE-conjugated anti-transferrin receptor antibody; Pharmingen). […] For each sample, data from ≧10,000 cells were collected. Median fluorescence intensities were used for quantification, since this measure of central tendency is least sensitive to outliers. For each sample, the PE and GFP fluorescence specifically attributable to the presence of the GLUT4 reporter were determined by subtracting background fluorescences, measured using control unstained cells and cells not expressing the reporter, respectively. These control cells were treated with the same conditions (e.g., type of serum and media, amino acid concentrations) used for the experimental cells. The ratio of fluorescence intensities plotted on the vertical axes of many figures is a relative, not absolute, measure of the proportion of GLUT4 at the cell surface. The scales are numbered arbitrarily and are not intended to permit comparison in absolute terms of data obtained in different experiments. In some of the kinetic studies (FIG. 26), the data were subjected to a simple smoothing operation. This consisted of calculating (0.25ra1—0.5rc+0.25rc+1), where r is the ratio of specific fluorescences for timepoint t. This calculated value was used for timepoints t=2 to ten−1, where n is the total number of timepoints. For the last time point t=n, (0.33rc1+0.67r1) was calculated. Basal values of r (r1) were unchanged.
To assay changes in the proportion of GLUT4 present at the plasma membrane, a cDNA encoding a GLUT4 reporter protein was constructed. This protein contains seven c-myc epitope tags in the first exofacial loop of GLUT4, and GFP fused in-frame at the carboxy terminus. […] An anti-myc monoclonal antibody, followed by a phencoerythrin (PE)-conjugated secondary antibody, was used to detect reporter protein present at the surface of living cells. […]

[2] = system: GLUT4 at the plasma membrane of CHO cells; experiment: FACS-based assay of the proportion of GLUT4 reporter at the cell surface, CHO cells; set-up: species or system Chinese Hamster
Protocol: as §1, §2
To measure GLUT4 trafficking at the surface of CHO cells, CHO cells expressing the murine ecotropic retroviral receptor were infected with a retrovirus carrying the GLUT4 reporter, and FACS was utilized to isolate cells falling within a narrow range of GFP fluorescence intensities. Upon insulin stimulation of these cells, externalization of the GLUT4 reporter was again noted, as detected by flow cytometry. […]

[3] = system: GLUT4 at the cell surface of adipocytes; conditions: <10% in the absence of insulin; cited from earlier work
[4] = system: GLUT4 in the plasma membrane fraction of 3T3-L1 cells; experiment: Subcellular fractionation and immunoblotting of GLUT4 in plasma membrane fraction, 3T3-L1 cells; type: cell-based, murine
From the text: Four 10 cm plates of 3T3-L1 adipocytes were used per condition to isolate low density microsomal and plasma membrane fractions for FIG. 17B. Eight and ten plates per condition were used to isolate low density microsomes for analysis by sucrose density gradient centrifugation (FIG. 17C) and in vesicle immunopurification experiments (FIG. 17D), respectively. Five plates of adipocytes and ten plates of preadipocytes were used per condition in experiments presented in FIGS. 19B and 20B, respectively. For experiments presented in FIGS. 17B and 17D cells were serum starved overnight, treated with the presence or absence of insulin (160 nM, 10 min.), then transferred to 4° C. and washed with cold PBS++. For the vesicle immunopurification (FIG. 17D) cells were starved overnight, then transferred to 4° C. and washed with cold PBS++ without insulin stimulation. For kinetic studies (FIGS. 19B), 480 nM insulin was used (added from a prewarmed 3×stock) in order to maximally and simultaneously stimulate all of the cells on each 10 cm dish. Cell were transferred to 4° C. and washed with cold PBS++ at the indicated times. In all cases, cells were next washed once with cold 250 mM sucrose, 10 mM Tris pH 7.4, 0.5 mM EDTA (Buffer A). Cells were resuspended by scraping in cold Buffer A with Complete protease inhibitors (Roche), then homogenized using 16 strokes (4 plates) or 25 strokes (8 plates) in a Dounce-type teflon tissue grinder (Kontes #22, VWR). All subsequent steps were performed at 4° C. […]
The supernatant from the initial centrifugation was recentrifuged at 19,000 rpm in an SS-34 rotor (43,000×g) for 30 minutes. […] Equal volumes of each fraction were analyzed by SDS-PAGE and immunoblotting, and the total protein content in each fraction was determined using the micro-BCA kit (Pierce). In experiments where LDM and PM fractions were analyzed directly (without sedimentation of the LDM), total protein content was first determined and then equal amounts of protein were analyzed by SDS-PAGE and immunoblotting.

[5] = system: GLUT4 at the cell surface of NIH 3T3 cells; experiment: FACS-based assay of the proportion of GLUT4 reporter at the cell surface, NIH 3T3 cells; conditions: NIH 3T3 cells expressing the GLUT4 reporter
Protocol: Confluent cells were reseeded on the indicated day of differentiation to six well plates (Coming, Costar #3506) one day before use in experiments, and were starved in DMEM without fetal bovine serum for at least 3 hours before insulin stimulation. Insulin was generally used at 160 nM; occasionally it was used at 80 nM or 200 nM and no difference was noted between these concentrations in either 3T3-L1 or CHO cells. Insulin was added directly to the wells from a 100×stock. […]
Flow cytometry was done on FACScan or FACSCalibur cytometers (Becton-Dickinson). […] Median fluorescence intensities were used for quantification, since this measure of central tendency is least sensitive to outliers. For each sample, the PE and GFP fluorescence specifically attributable to the presence of the GLUT4 reporter were determined by subtracting background fluorescences, measured using control unstained cells and cells not expressing the reporter, respectively. […] The ratio of fluorescence intensities plotted on the vertical axes of many figures is a relative, not absolute, measure of the proportion of GLUT4 at the cell surface. […] This consisted of calculating (0.25ra1—0.5rc+0.25rc+1), where r is the ratio of specific fluorescences for timepoint t. This calculated value was used for timepoints t=2 to ten−1, where n is the total number of timepoints. For the last time point t=n, (0.33rc1+0.67r1) was calculated. […]

[6] = system: GLUT4 reporter in AML12 hepatocyte cell line; experiment: GLUT4 reporter translocation in AML12 hepatocyte cell line; type: cell-based; conditions: AML12 cells; data not shown
[7] = 3T3-L1 preadipocytes and adipocytes
[8] = all days of 3T3-L1 differentiation, 80 nM insulin

## CO[C@H]1C[C@@H]2CC[C@@H](C)[C@@](O)(O2)C(=O)C(=O)N2CCCC[C@H]2C(=O)O[C@H]([C@H](C)C[C@@H]2CC[C@@H](O)[C@H](OC)C2)CC(=O)[C@H](C)/C=C(\C)[C@@H](O)[C@@H](OC)C(=O)[C@H](C)C[C@H](C)/C=C/C=C/C=C/1C [rapamycin, reference compound]
[1]; 3T3-L1 adipocytes, after rapamycin treatment, data not shown
  decrease in amount of GLUT4 reporter per cell (GFP fluorescence): ≤ 10%
[2]; CHO cells, after rapamycin treatment, data not shown
  change in amount of GLUT4 reporter protein (GFP fluorescence): ≤ 10%

## insulin
[1]; 3T3-L1 adipocytes, FIG. 19A
  subsequent decrease to steady-state, of peak response: ~20%
[1]; 3T3-L1 adipocytes, average of Day 8 and 10, FIG. 19A
  peak response over basal: 5.4 fold
[1]; [7]
  time at which steady-state level of cell surface GLUT4 is reached: about 15 minute
  time of peak plasma membrane GLUT4 after insulin addition: about 5 minute
[1]; 3T3-L1 preadipocytes and adipocytes, peak after insulin addition
  increase in plasma membrane GLUT4: about 5 fold
[1]; 3T3-L1 preadipocytes, 5 minutes after insulin addition
  increase in cell-surface GLUT4: fourfold
[1]; [8]
  fall of the fraction of GLUT4 on the plasma membrane after the peak: 20% to 40
  time of greatest proportion of GLUT4 on the plasma membrane after insulin addition: four to five
  time to steady-state after insulin addition: 15 to 20 min
[1]; confluent 3T3-L1 preadipocytes cultured in 10% calf serum or 10% fetal bovine serum, 5 minutes
  increase in the fraction of GLUT4 present at the plasma membrane: four-fold
[3]
  proportion of GLUT4 at the cell surface in the presence of insulin: 35-50%
[4]; 3T3-L1 adipocytes, native GLUT4 and reporter protein, insulin 160 nM, 10 min, densitometry of several experiments
  increases in the plasma membrane fraction (insulin/basal): 5- to 10 fold
[4]; 3T3-L1 preadipocytes expressing the GLUT4 reporter
  time of peak response of GLUT4 reporter in the PM fraction after insulin addition: 8 min
[4]; endogenous GLUT4, uninfected 3T3-L1 adipocytes, 480 nM insulin
  time of peak GLUT4 in the PM fraction after insulin addition: 7 min
[5]
  increase in the proportion of GLUT4 at the cell surface: twofold
[6]
  insulin-stimulated translocation of the GLUT4 reporter: minimal translocation
  overshoot of the steady-state response: no overshoot
[2]; CHO cells
  time at which steady-state level of cell surface GLUT4 is reached: about 15 minute
  time of peak plasma membrane GLUT4 after insulin addition: about 5 minute
[2]; CHO cells cultured in DMEM
  peak fraction of GLUT4 at the cell surface relative to unstimulated cells: 5.5 fold
  time of peak GLUT4 externalization after insulin addition: four to five
  time to steady-state after insulin addition: twenty
[2]; CHO cells cultured in DMEM, several experiments
  part of the increase eliminated in the subsequent decrease: 50% to 60
[2]; CHO cells cultured in F12 medium
  overshoot of the final, steady-state proportion of GLUT4 at the cell surface: no overshoot
[2]; CHO cells, peak after insulin addition
  increase in plasma membrane GLUT4: about 5 fold
[2]; confluent CHO cells expressing the GLUT4 reporter, FIG. 17F
  shift of the population upward along the PE (myc) axis: ~5 fold
